# From patent publication US20230365553A1, “COMPOUNDS AND COMPOSITIONS FOR TREATING CONDITIONS ASSOCIATED WITH STING ACTIVITY” (IFM Due, Inc., priority 2020, published 2023)
# Biological target: T1, STING (Homo sapiens, UniProt Q86WV6, G230A/H232R/R293Q/R71H)
# T1 construct: host or cells: THP1-Dual KO-IFNAR2 cells
# Test: STING reporter assay: luciferase reporter activity in THP1-Dual KO-IFNAR2 cells stimulated with 2′3′cGAMP
# Type: cell-based
# Conditions: 15 μM 2′3′cGAMP, 24h, read-out: hSTING EC50
# Protocol: STING pathway activation by the compounds described herein was measured using THP 1-Dual™ cells (KO-IFNAR2).
# THP1-Dual™ KO-IFNAR2 Cells (obtained from invivogen) were maintained in RPMI, 10% FCS, 5 ml P/S, 2 mM L-glut, 10 mM Hepes, and 1 mM sodium pyruvate. Compounds were spotted in empty 384 well tissue culture plates (Greiner 781182) by Echo for a final concentration of 0.0017-100 μM. Cells were plated into the TC plates at 40 μL per well, 2×10E6 cells/mL. For activation with STING ligand, 2′3′cGAMP (MW 718.38, obtained from Invivogen), was prepared in Optimem media.
# The following solutions were prepared for each 1×384 plate: • Solution A: 2 mL Optimem with one of the following stimuli: • 60 μL of 10 mM 2′3′cGAMP→150 μM stock • Solution B: 2 mL Optimem with 60 μL Lipofectamine 2000→Incubate 5 min at RT
# 2 mL of solution A and 2 ml Solution B was mixed and incubated for 20 min at room temperature (RT). 20 μL of transfection solution (A+B) was added on top of the plated cells, with a final 2′3′cGAMP concentration of 15 μM. The plates were then centrifuged immediately at 340 g for 1 minute, after which they were incubated at 37° C., 5% CO2, >98% humidity for 24h. Luciferase reporter activity was then measured. EC50 values were calculated by using standard methods known in the art.
# Luciferase reporter assay: 10 μL of supernatant from the assay was transferred to white 384-plate with flat bottom and squared wells. One pouch of QUANTI-Luc™ Plus was dissolved in 25 mL of water. 100 μL of QLC Stabilizer per 25 mL of QUANTI-Luc™ Plus solution was added. 50 μL of QUANTI-Luc™ Plus/QLC solution per well was then added. Luminescence was measured on a Platereader (e.g., Spectramax I3X (Molecular Devices GF3637001)).
# Luciferase reporter activity was then measured. EC50 values were calculated by using standard methods known in the art.
# T1 sequence (Q86WV6 whole entry R71H/G230A/H232R/R293Q): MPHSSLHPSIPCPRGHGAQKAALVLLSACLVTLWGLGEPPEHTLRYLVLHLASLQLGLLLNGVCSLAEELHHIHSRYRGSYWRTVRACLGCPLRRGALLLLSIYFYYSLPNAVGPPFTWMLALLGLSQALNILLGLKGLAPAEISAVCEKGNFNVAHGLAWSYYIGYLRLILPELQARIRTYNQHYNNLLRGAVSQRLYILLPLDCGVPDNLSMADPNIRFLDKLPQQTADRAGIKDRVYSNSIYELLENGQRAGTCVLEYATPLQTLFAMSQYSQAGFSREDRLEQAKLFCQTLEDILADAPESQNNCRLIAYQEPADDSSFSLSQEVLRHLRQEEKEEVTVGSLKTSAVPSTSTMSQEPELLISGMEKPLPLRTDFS
row,SMILES,EC50 [µM]
1,"CCc1ccc(-n2cc(-c3ccc4[nH]cc(NC(=O)CC(C)(C)O)c4c3)cn2)cc1 [Compound 113, N-(5-(1-(4-ethylphenyl)-1H-pyrazol-4-yl)-1H-indol-3-yl)-3-hydroxy-3-methylbutanamide]",0.04 to 0.2
2,"CCc1ccc(-n2cc(-c3ccc4[nH]cc(NC(=O)C5CCC5)c4c3)cn2)cc1 [Compound 124, N-(5-(1-(4-ethylphenyl)-1H-pyrazol-4-yl)-1H-indol-3-yl)cyclobutanecarboxamide]",0.04 to 0.2
3,"O=C(Nc1c[nH]c2ccc(-c3cnn(-c4ccc(C(F)(F)F)cc4)c3)cc12)c1ccc(=O)[nH]n1 [Compound 282, 6-oxo-N-(5-(1-(4-(trifluoromethyl)phenyl)-1H-pyrazol-4-yl)-1H-indol-3-yl)-1,6-dihydropyridazine-3-carboxamide]",1 to 5
4,"N#CC1(C(=O)Nc2c[nH]c3ccc(-c4cnn(-c5ccc(C(F)(F)F)cc5)c4)cc23)CCC1 [Compound 229, 1-cyano-N-(5-(1-(4-(trifluoromethyl)phenyl)-1H-pyrazol-4-yl)-1H-indol-3-yl)cyclobutane-1-carboxamide]",1 to 5
5,"CC1(C(=O)Nc2c[nH]c3ccc(-c4cnn(-c5ccc(C(F)(F)F)cc5)c4)cc23)CCCO1 (centres unmarked) [Compound 203, 2-methyl-N-(5-(1-(4-(trifluoromethyl)phenyl)-1H-pyrazol-4-yl)-1H-indol-3-yl)tetrahydrofuran-2-carboxamide]",5 to 100
6,"CC(C)(N)CC(=O)Nc1c[nH]c2ccc(-c3cnn(-c4ccc(C(F)(F)F)cc4)c3)cc12 [Compound 189, 3-amino-3-methyl-N-(5-(1-(4-(trifluoromethyl)phenyl)-1H-pyrazol-4-yl)-1H-indol-3-yl)butanamide]",5 to 100
7,"O=C(Nc1c[nH]c2ccc(-c3cnn(-c4ccc(C(F)(F)F)cc4)c3)cc12)c1nccs1 [Compound 273, N-(5-(1-(4-(trifluoromethyl)phenyl)-1H-pyrazol-4-yl)-1H-indol-3-yl)thiazole-2-carboxamide]",1 to 5
8,"CC(=O)Nc1c[nH]c2ccc(-c3cnn(C(C)c4ccc(C(F)(F)F)cc4)c3)cc12 (centres unmarked) [Compound 178, N-(5-(1-(1-(4-(trifluoromethyl)phenyl)ethyl)-1H-pyrazol-4-yl)-1H-indol-3-yl)acetamide]",0.2 to 1
9,"Cc1nc(C(=O)Nc2c[nH]c3ccc(-c4cnn(-c5ccc(C(F)(F)F)cc5)c4)cc23)co1 [Compound 270, 2-methyl-N-(5-(1-(4-(trifluoromethyl)phenyl)-1H-pyrazol-4-yl)-1H-indol-3-yl)oxazole-4-carboxamide]",0.2 to 1
10,"CCC(=O)Nc1c[nH]c2ccc(-c3cnn(-c4ccc(Cl)cc4)c3)cc12 [Compound 119, N-(5-(1-(4-chlorophenyl)-1H-pyrazol-4-yl)-1H-indol-3-yl)propionamide]",0.2 to 1
11,"O=C(Nc1c[nH]c2ccc(-c3cnn(-c4ccc(C(F)(F)F)cc4)c3)cc12)c1ncco1 [Compound 272, N-(5-(1-(4-(trifluoromethyl)phenyl)-1H-pyrazol-4-yl)-1H-indol-3-yl)oxazole-2-carboxamide]",1 to 5
12,"O=C(Nc1c[nH]c2ccc(-c3cnn(-c4ccc(C(F)(F)F)cc4)c3)cc12)[C@@H]1CC(F)(F)CN1 [compound 184, (S)-4,4-difluoro-N-(5-(1-(4-(trifluoromethyl)phenyl)-1H-pyrazol-4-yl)-1H-indol-3-yl)pyrrolidine-2-carboxamide]",5 to 100
13,"O=C(CC(O)C(F)(F)F)Nc1c[nH]c2ccc(-c3cnn(-c4ccc(C(F)(F)F)cc4)c3)cc12 (centres unmarked) [Compound 195, 4,4,4-trifluoro-3-hydroxy-N-(5-(1-(4-(trifluoromethyl)phenyl)-1H-pyrazol-4-yl)-1H-indol-3-yl)butanamide]",0.2 to 1
14,"O=C(Nc1c[nH]c2ccc(-c3cnn(-c4ccc(C(F)(F)F)cc4)c3)cc12)c1cnn[nH]1 [Compound 261, N-(5-(1-(4-(trifluoromethyl)phenyl)-1H-pyrazol-4-yl)-1H-indol-3-yl)-1H-1,2,3-triazole-5-carboxamide]",1 to 5
15,"CCC(=O)Nc1c[nH]c2ccc(-c3ccc(CN4CCOCC4)s3)cc12 [Compound 135, N-(5-(5-(morpholinomethyl)thiophen-2-yl)-1H-indol-3-yl)propionamide]",5 to 100
16,"N#CC1(C(=O)Nc2c[nH]c3ccc(-c4cnn(-c5ccc(C(F)(F)F)cc5)c4)cc23)CCOCC1 [Compound 220, 4-cyano-N-(5-(1-(4-(trifluoromethyl)phenyl)-1H-pyrazol-4-yl)-1H-indol-3-yl)tetrahydro-2H-pyran-4-carboxamide]",5 to 100
17,"CCC(=O)Nc1c[nH]c2ccc(-c3cccc(C4CC4)c3)cc12 [Compound 146, N-(5-(3-cyclopropylphenyl)-1H-indol-3-yl)propionamide]",1 to 5
18,"CC(C)CC(C)(N)C(=O)Nc1c[nH]c2ccc(-c3cnn(-c4ccc(C(F)(F)F)cc4)c3)cc12 (centres unmarked) [Compound 182, 2-amino-2,4-dimethyl-N-(5-(1-(4-(trifluoromethyl)phenyl)-1H-pyrazol-4-yl)-1H-indol-3-yl)pentanamide]",5 to 100
19,"CCC(C)(O)C(=O)Nc1c[nH]c2ccc(-c3cnn(-c4ccc(C(F)(F)F)cc4)c3)cc12 (centres unmarked) [Compound 200, 2-hydroxy-2-methyl-N-(5-(1-(4-(trifluoromethyl)phenyl)-1H-pyrazol-4-yl)-1H-indol-3-yl)butanamide]",1 to 5
20,"CC(C)(O)C(=O)Nc1c[nH]c2ccc(-c3cnn(-c4ccc(C(F)(F)F)cc4)c3)cc12 [Compound 198, 2-hydroxy-2-methyl-N-(5-(1-(4-(trifluoromethyl)phenyl)-1H-pyrazol-4-yl)-1H-indol-3-yl)propanamide]",1 to 5
21,"O=C(Nc1c[nH]c2ccc(-c3cnn(-c4ccc(C(F)(F)F)cc4)c3)cc12)C1CC1(F)F (centres unmarked) [Compound 239, 2,2-difluoro-N-(5-(1-(4-(trifluoromethyl)phenyl)-1H-pyrazol-4-yl)-1H-indol-3-yl)cyclopropane-1-carboxamide]",0.2 to 1
22,"CCC(=O)Nc1c[nH]c2ccc(-c3cnn(-c4ccccc4)c3)cc12 [Compound 150, N-(5-(1-phenyl-1H-pyrazol-4-yl)-1H-indol-3-yl)propionamide]",0.2 to 1
23,"CCC(=O)Nc1c[nH]c2ccc(-c3ccc(OC(F)(F)F)cc3)cc12 [Compound 143, N-(5-(4-(trifluoromethoxy)phenyl)-1H-indol-3-yl)propionamide]",1 to 5
24,"Cc1cc(C(=O)Nc2c[nH]c3ccc(-c4cnn(-c5ccc(C(F)(F)F)cc5)c4)cc23)no1 [Compound 274, 5-methyl-N-(5-(1-(4-(trifluoromethyl)phenyl)-1H-pyrazol-4-yl)-1H-indol-3-yl)isoxazole-3-carboxamide]",0.2 to 1
25,"COCC1(C(=O)Nc2c[nH]c3ccc(-c4cnn(-c5ccc(C(F)(F)F)cc5)c4)cc23)CCC1 [Compound 199, 1-(methoxymethyl)-N-(5-(1-(4-(trifluoromethyl)phenyl)-1H-pyrazol-4-yl)-1H-indol-3-yl)cyclobutane-1-carboxamide]",1 to 5
26,"CCC(O)C(=O)Nc1c[nH]c2ccc(-c3cnn(-c4ccc(C(F)(F)F)cc4)c3)cc12 (centres unmarked) [Compound 197, 2-hydroxy-N-(5-(1-(4-(trifluoromethyl)phenyl)-1H-pyrazol-4-yl)-1H-indol-3-yl)butanamide]",0.2 to 1
